Values of other authors, collected in patent US8377888B2, “Method of predicting the clinical response to cisplatin or carboplatin chemotherapeutic treatment” (Pangaea Biotech, S.A., priority 2005, dated 2013).

What was measured:
[1] = test system: 14-3-3σ methylation-negative cell lines; conditions: wild-type or mutated p53
[2] = test system: MKN74 (14-3-3σ methylation-positive, wild-type p53)
[3] = test system: MKN28 (14-3-3σ methylation-positive, mutated p53)
[4] = test system: Colon carcinoma cells lacking 14-3-3σ; conditions: cells initiate but do not maintain G2 arrest
[5] = test system: non-small cell lung cancer (NSCLC); conditions: per arm of randomized study

Compound: COc1cccc2c1C(=O)c1c(O)c3c(c(O)c1C2=O)C[C@@](O)(C(=O)CO)C[C@@H]3O[C@H]1C[C@H](N)[C@H](O)[C@H](C)O1 [adriamycin]
- Sensitivity to adriamycin [1]: resistant
- Sensitivity to adriamycin [2]: highly sensitive
- Sensitivity to adriamycin [3]: highly sensitive
- Cell fate after adriamycin treatment [4]: mitotic catastrophe and cell death

Compound: paclitaxel/carboplatin
- Median survival [5]: 8.2 months
